The source of these data is US20200345633A1, “Pharmaceutical Compositions for Controlling and/or Reducing the Progression of Myopia” (Brien Holden Vision Institute Limited, priority 2017, published 2020).

Data set [1] relates to myopia. Particulars: oral administration, young myopic children, one year; cited from earlier work.
The subject of data set [2] is myopia. The following applies: cited from earlier work.
In a further data set the test system is primate eyes. Description: Choroidal thickness via Ocular Coherence Tomography (OCT) after eye drops in primate eyes. The following applies: atropine at 0.1 wt. % concentration; data not shown.
The subject of a further data set is accommodation. Particulars: systemic intake; cited from earlier work.
In a further data set the test system is human eye. Particulars: concentration of 1 wt. %; cited from earlier work.

Where two headings read alike, the source gives them in different places.

Method for primate eyes: As outlined in FIG. 1, in this experiment, the baseline choroidal thickness of primate 656 was measured via Ocular Coherence Tomography (OCT) in both eyes at baseline 1 (B1) and was repeated 2 weeks later (B2). Beginning on Day 1 (five days after the second baseline measurement), a single drop of 0.1 wt. % atropine monotherapy was instilled in the right eye only once per day for 2 days. On Day 3, a choroidal thickness measurement via OCT was then conducted for both eyes and another drop of 0.1 wt. % atropine monotherapy was instilled in the right eye only and the choroidal thickness measured again in both eyes. […] On Day 20, the choroidal thickness of both eyes was measured using OCT, another drop of 1.4 wt. % caffeine monotherapy was instilled in the left eye only, and the choroidal thickness was then measured again in both eyes 20 minutes later. […] On Day 37, the choroidal thickness of both eyes was measured via OCT, another drop of the 0.1 wt. % atropine/1.4 wt. % caffeine combination therapy was instilled in the right eye only, and the choroidal thickness was then measured again in both eyes 20 minutes later. Following the final measurement on Day 37, no drops were instilled for over 2 weeks for a Recovery Period, after which the choroidal thickness of both eyes was again measured on Day 57. […]

As for `Cn1cnc2[nH]c(=O)[nH]c(=O)c21` [7-methylxanthine], in the data set with myopia [1], the axial eye growth result is given as “retards axial eye growth”, the progression of myopia result is recorded as “slowing of the progression of myopia” and the side effects result was “without significant side effects”.
For `CN1[C@@H]2CC[C@H]1C[C@@H](OC(=O)C(CO)c1ccccc1)C2` (stereo partly drawn) [atropine], in the data set with myopia [2] (0.01 wt. %), the “effect on accommodative amplitude” value is “not significant” and the pupil size increase entry is reported as “minimal”. Besides, the adverse effects result in the data set with myopia [2] (concentrations of 1% and 0.5%) is reported as “significant short term adverse effects”. In addition, the progression of myopia entry in the data set with myopia [2] (initially used in concentrations of approximately 1%) is given as “slow the progression of myopia”. The axial length elongation entry in the data set with myopia [2] (low dose, 0.01 wt %) is listed as “not effective in reducing axial length elongation”. In the data set on myopia [2] (low-concentration topical, 0.01 wt. %), the side effects entry was “not induce side effects”. For the same molecule, the adverse effects result in the data set on primate eyes was “adverse effects result”.
For `Cn1c(=O)c2c(ncn2C)n(C)c1=O` [caffeine], the accommodation entry in the data set with accommodation was “enhances accommodation”. Moreover, in the data set on human eye, the “safety of topical use” value was “safely been used topically”.
